Assay results as given in US20230022841A1, “ISARIDIN CYCLODEPSIPEPTIDE DERIVATIVES, AND PREPARATION AND APPLICATION THEREOF” (Sun Yat-sen University, priority 2022, published 2023).

How the values were obtained:
[1] = test system: ADP-induced platelet aggregation; test: ADP-induced platelet aggregation in vitro (platelet-rich plasma, turbidimetric method); format: cell-based, Kunming mice; conditions: 5 min; mouse platelet-rich plasma, ADP inducer, 37° C., maximum aggregation rate within 5 min; values stated as approximate; read-out: IC50, inhibition of ADP-induced platelet aggregation
Protocol: Compounds I-1 to I-9 and I-13 to I-15 prepared in Example 1 were tested for their inhibitory effects on the ADP-induced platelet aggregation in vitro to evaluate the anti-thrombotic activities, and the test process was specifically described as follows.
Kunming mice were anesthetized with pentobarbital sodium, and blood was collected from the celiac artery, where the syringe was added with 3.2% sodium citrate for anti-coagulation in advance (a volume ratio of whole blood to the anticoagulant was 9:1). The mixture was gently mixed and centrifuged at 1000 r/min for 10 min to collect the supernatant as the platelet-rich plasma (PRP). The remaining part was centrifuged at 3000 r/min for 10 min to obtain platelet-poor plasma (PPP). […]
For the blank control group, 1% DMSO was mixed with 295 μL of PRP; for the drug group, 5 μL of the isaridin derivatives with different concentrations (a final concentration of 0-100 μM) was mixed with 295 μL of PRP; and regarding the positive control group, aspirin was mixed with plasma to a final concentration of 120 μM. […] Three parallel samples were tested for each group, and the platelet aggregation rate was measured at 37° C. by turbidimetric method, where the maximum aggregation rate within 5 min was recorded.
The platelet aggregation rate was expressed as the maximum platelet aggregation rate, and the results were expressed as the inhibition rate. […]

[2] = test system: LPS-induced RAW264.7 cells; test: NO release from LPS-induced macrophage RAW264.7 cells (Griess); format: cell-based; conditions: Mus musculus, LPS 1 μg/mL, 24 h, Griess reagent, read-out: half maximal inhibitory concentration (IC50), NO release inhibition
Protocol: The effect of the compounds I-1 to I-9 and I-13 to I-15 prepared in Example 1 on the NO release from LPS-induced macrophage RAW264.7 cells was investigated to evaluate the anti-inflammatory activity, which was specifically described as follows.
Lipopolysaccharide (LPS); indomethacin (Indomethacin, Indo, positive control); mouse mononuclear macrophages (RAW264.7); dimethyl sulfoxide (DMSO); Methylthiazolyldiphenyl-tetrazolium bromide (MTT, 5 mg/mL); and Griess reagent nitrite measurement kit (Beyotime Biotechnology Co., Ltd).
The compounds were respectively dissolved in DMSO to obtain a series of 10 mM stock solutions, which were diluted with Dulbecco's modified eagle medium (DMEM) to a required concentration (DMSO<2%) for use.
RAW264.7 cells (1×10^5 cells/mL) were inoculated into a 96-well plate at 100 μL per well and incubated at 37° C. and 5% CO2 for 12 h. Different concentrations of samples containing LPS (with a final concentration of 1 μg/mL) were respectively loaded on the plate. […] After that, the absorbance of each well of the 96-well plate at 540 nm was measured with a microplate reader and then plugged into the standard curve to calculate the NO release level. […]

SMILES | IC50 [1] | IC50 [2]
CC(=O)Oc1ccccc1C(=O)O [aspirin] | 120 µM | 
COc1ccc2c(c1)c(CC(=O)O)c(C)n2C(=O)c1ccc(Cl)cc1 [indomethacin] |  | 38 µM
